A word on the IC50: it is the concentration that gives 50% inhibition.

The test deals with DGKα (Homo sapiens (Human), UniProt P23743). Briefly: Human DGKα kinase activity inhibition assay (ADP-Glo). It is filed as biochemical. As to conditions: recombinant full-length human DGKα, 55 μM ATP, 7 μM 1,2-dioleoyl-sn-glycerol, read-out: IC50 values of examples in in vitro human DGKa kinase activity inhibition assays. How it is done: Human DGKα Kinase Activity Inhibition Assay
Sequence of DGKα (P23743 other isoform, or with tags, fused parts or gaps): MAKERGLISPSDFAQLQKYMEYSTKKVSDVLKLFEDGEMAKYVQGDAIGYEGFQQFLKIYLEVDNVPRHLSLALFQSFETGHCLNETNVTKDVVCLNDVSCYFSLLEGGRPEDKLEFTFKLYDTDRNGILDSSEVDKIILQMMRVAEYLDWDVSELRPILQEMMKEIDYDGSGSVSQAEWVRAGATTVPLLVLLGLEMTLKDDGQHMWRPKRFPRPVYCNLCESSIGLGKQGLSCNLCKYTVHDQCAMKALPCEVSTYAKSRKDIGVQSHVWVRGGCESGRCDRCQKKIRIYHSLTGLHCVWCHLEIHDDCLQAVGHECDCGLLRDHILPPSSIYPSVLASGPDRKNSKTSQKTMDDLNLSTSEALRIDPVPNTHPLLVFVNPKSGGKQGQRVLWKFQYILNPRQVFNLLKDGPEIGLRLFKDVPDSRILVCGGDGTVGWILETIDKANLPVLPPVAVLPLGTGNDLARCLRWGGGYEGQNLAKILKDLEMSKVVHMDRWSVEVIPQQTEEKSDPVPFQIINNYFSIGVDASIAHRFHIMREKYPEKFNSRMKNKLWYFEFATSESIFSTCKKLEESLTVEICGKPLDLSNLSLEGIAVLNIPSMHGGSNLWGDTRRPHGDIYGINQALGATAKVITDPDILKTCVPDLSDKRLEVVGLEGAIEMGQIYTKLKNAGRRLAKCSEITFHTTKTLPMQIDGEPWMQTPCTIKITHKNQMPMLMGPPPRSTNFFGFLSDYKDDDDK
Human DGKα inhibitory activity of compounds of the present invention was quantified employing the human DGKα kinase activity assay as described in the following paragraphs. In essence, the enzyme activity was measured by quantification of the adenosine-di-phosphate (ADP) generated as a co-product of the enzyme reaction via the “ADP-Glo™ Kinase Assay” kit from the company Promega. This detection system works as follows: In a first step the ATP not consumed in the kinase reaction is quantitatively converted to cAMP employing an adenylate cyclase (“ADP-Glo-reagent”), then the adenylate cyclase is stopped and the ADP generated in the kinase reaction converted to ATP, which subsequently generates in a luciferase-based reaction a glow-luminescence signal (“Kinase Detection Reagent”).
C-terminally FLAG-tagged, recombinant full-length human DGKα (expressed in baculovirus infected insect cells, purified using anti-Flag pulldown and size exclusion chromatography as described below, DGKa_hu_1) was used as enzyme. As substrate for the kinase 1,2-dioleoyl-sn-glycerol, reconstituted in octyl-β-D-glucopyranoside micelles, was used. […] Then 35 volumes of 50 mM MOPS buffer (pH 7.4) were added to yield a solution of 0.28 mM 1,2 dioleoyl-sn-glycerol and 200 mM […], which was aliquoted, flash-frozen in liquid nitrogen, and stored at −20° C. until use.
For the assay 50 nl of a 100-fold concentrated solution of the test compound in dimethyl sulfoxide (DMSO, Sigma) was pipetted into either a white 1536-well or a white low-volume 384-well microtiter plate (both Greiner Bio-One, Frickenhausen, Germany).
Background: In ADP-Glo the light output rises with the ADP produced.
As for `Cc1ccc2oc(C3CCN(c4c(C#N)c(=O)n(C)c5ccc(OCC6CC6)cc45)CC3)nc2c1` [Example 408, 6-(cyclopropylmethoxy)-1-methyl-4-[4-(5-methyl-1,3-benzoxazol-2-yl)piperidin-1-yl]-2-oxo-1,2-dihydroquinoline-3-carbonitrile], the IC50 turned out to be 15 nM.
In the case of `CC[C@H](C)c1ccc2c(N3CCC(C)(c4nc5cc(C)ccc5o4)CC3)c(C#N)c(=O)n(C)c2c1` [Example 266, 7-[(2S)-butan-2-yl]-1-methyl-4-[4-methyl-4-(5-methyl-1,3-benzoxazol-2-yl)piperidin-1-yl]-2-oxo-1,2-dihydroquinoline-3-carbonitrile], the IC50 came out at 53 nM.
In the case of `Cc1ccc2oc(C3(C)CCN(c4c(C#N)c(=O)n(C)c5ccc(C#N)cc45)CC3)nc2c1` [Example 207, 1-methyl-4-[4-methyl-4-(5-methyl-1,3-benzoxazol-2-yl)piperidin-1-yl]-2-oxo-1,2-dihydroquinoline-3,6-dicarbonitrile] it was 2.7 nM; in that of `Cn1c(=O)c(C#N)c(N2CCC(c3nc4c(F)cccc4o3)CC2)c2ccccc21` [Example 26, 4-[4-(4-fluoro-1,3-benzoxazol-2-yl)piperidin-1-yl]-1-methyl-2-oxo-1,2-dihydroquinoline-3-carbonitrile], 10 nM; in that of `Cn1c(=O)c(C#N)c(N2CCC(F)(c3nc4ccccc4s3)CC2)c2ccccc21` [Example 16, 4-[4-(1,3-benzothiazol-2-yl)-4-fluoropiperidin-1-yl]-1-methyl-2-oxo-1,2-dihydroquinoline-3-carbonitrile], 9.9 nM.
In the case of `Cc1ccc2c(N3CCC(c4nc5ccccc5o4)CC3)c(C(N)=O)c(=O)n(C)c2c1` [Example 314, 4-[4-(1,3-benzoxazol-2-yl)piperidin-1-yl]-1,7-dimethyl-2-oxo-1,2-dihydroquinoline-3-carboxamide] it was 1.7 nM; in that of `CCC1(c2nc3cc(C)ccc3o2)CCN(c2c(C#N)c(=O)n(C)c3cc(Br)ccc23)CC1` [Example 141, 7-bromo-4-[4-ethyl-4-(5-methyl-1,3-benzoxazol-2-yl)piperidin-1-yl]-1-methyl-2-oxo-1,2-dihydroquinoline-3-carbonitrile], 5.6 nM; in that of `Cn1c(=O)c(C#N)c(N2CCC(c3nc4ccccc4o3)CC2)c2ccc(C#N)cc21` [Example 275, 4-[4-(1,3-benzoxazol-2-yl)piperidin-1-yl]-1-methyl-2-oxo-1,2-dihydroquinoline-3,7-dicarbonitrile], 172 nM.
Take `Cn1c(=O)c(C#N)c(N2CCC(C)(c3nc4cc(C(C)(C)C)ccc4o3)CC2)c2ccccc21` [Example 24, 4-[4-(5-tert-butyl-1,3-benzoxazol-2-yl)-4-methylpiperidin-1-yl]-1-methyl-2-oxo-1,2-dihydroquinoline-3-carbonitrile]: the half-maximal inhibitory concentration (IC50) is 45 nM.
As to `Cc1ccc2oc(C3CCN(c4c(C(N)=O)c(=O)n(C)c5cc(O)c(Br)cc45)CC3)nc2c1` [Example 511, 6-bromo-7-hydroxy-1-methyl-4-[4-(5-methyl-1,3-benzoxazol-2-yl)piperidin-1-yl]-2-oxo-1,2-dihydroquinoline-3-carboxamide], the IC50 is 1.5 nM.
`CC(C)c1ccc(C2CCN(c3c(C#N)c(=O)n(C)c4ccccc34)CC2)cc1` [Example 47, 1-methyl-2-oxo-4-{4-[4-(propan-2-yl)phenyl]piperidin-1-yl}-1,2-dihydroquinoline-3-carbonitrile]: the 50% inhibitory concentration (IC50) was 3 nM.
The result for `Cc1cccc2nc(C3CCN(c4c(C#N)c(=O)n(C)c5ccccc45)CC3)oc12` [Example 15, 1-methyl-4-[4-(7-methyl-1,3-benzoxazol-2-yl)piperidin-1-yl]-2-oxo-1,2-dihydroquinoline-3-carbonitrile] reads 11 nM.
The result for `Cn1c(=O)c(C#N)c(N2CCC(c3cccc(N=S(C)(C)=O)c3)CC2)c2ccccc21` [Example 69, 4-[4-(3-{[dimethyl(oxo)-A6-sulfanylidene]amino}phenyl)piperidin-1-yl]-1-methyl-2-oxo-1,2-dihydroquinoline-3-carbonitrile] reads 105 nM; that for `Cn1c(=O)c(C#N)c(N2CCC(c3ccccc3)CC2)c2ccccc21` [Example 57, 1-methyl-2-oxo-4-(4-phenylpiperidin-1-yl)-1,2-dihydroquinoline-3-carbonitrile], 22 nM; that for `Cn1c(=O)c(C#N)c(N2CCC(c3ccc(Oc4ccccc4)cc3)CC2)c2ccccc21` [Example 56, 1-methyl-2-oxo-4-[4-(4-phenoxyphenyl)piperidin-1-yl]-1,2-dihydroquinoline-3-carbonitrile], 17 nM.
The result for `Cn1c(=O)c(C(N)=O)c(N2CCC(C)(c3nc4ccccc4o3)CC2)c2ccc(C(F)(F)F)cc21` [Example 306, 4-[4-(1,3-benzoxazol-2-yl)-4-methylpiperidin-1-yl]-1-methyl-2-oxo-7-(trifluoromethyl)-1,2-dihydroquinoline-3-carboxamide] reads 4.1 nM.
Take `Cc1ccc2oc(C3CCN(c4c(C#N)c(=O)n(C)c5cc(OC6CCOC6)ccc45)CC3)nc2c1` (racemic) [Example 379, (rac)-1-methyl-4-[4-(5-methyl-1,3-benzoxazol-2-yl)piperidin-1-yl]-2-oxo-7-[(oxolan-3-yl)oxy]-1,2-dihydroquinoline-3-carbonitrile]: the IC50 amounted to 1 nM.
In the case of `Cc1ccc2oc(C3(C)CCN(c4c(C#N)c(=O)n(C)c5cc(Cl)ccc45)CC3)nc2c1` [Example 228, 7-chloro-1-methyl-4-[4-methyl-4-(5-methyl-1,3-benzoxazol-2-yl)piperidin-1-yl]-2-oxo-1,2-dihydroquinoline-3-carbonitrile] it was 2.4 nM; in that of `Cc1ccc2oc(C3CCN(c4c(C(N)=O)c(=O)n(C)c5cc(C)ccc45)CC3)nc2c1` [Example 313, 1,7-dimethyl-4-[4-(5-methyl-1,3-benzoxazol-2-yl)piperidin-1-yl]-2-oxo-1,2-dihydroquinoline-3-carboxamide], 1.5 nM.
As for `Cc1ccc2oc(C3(C)CCN(c4c(C#N)c(=O)n(C)c5ccc(OC6CCC6)cc45)CC3)nc2c1` [Example 278, 6-(cyclobutyloxy)-1-methyl-4-[4-methyl-4-(5-methyl-1,3-benzoxazol-2-yl)piperidin-1-yl]-2-oxo-1,2-dihydroquinoline-3-carbonitrile], the IC50 was 480 nM.
Take `Cn1c(=O)c(C#N)c(N2CCC(c3nc4ccccc4o3)CC2)c2ccccc21` [Example 2, 4-[4-(1,3-benzoxazol-2-yl)piperidin-1-yl]-1-methyl-2-oxo-1,2-dihydroquinoline-3-carbonitrile]: the concentration for half-maximal inhibition (IC50) came to 6.4 nM.
Consider `Cc1ccc2oc(C3CCN(c4c(C(N)=O)c(=O)n(C)c5cc(F)c(Br)cc45)CC3)nc2c1` [Example 563, 6-bromo-7-fluoro-1-methyl-4-[4-(5-methyl-1,3-benzoxazol-2-yl)piperidin-1-yl]-2-oxo-1,2-dihydroquinoline-3-carboxamide], for which the IC50 came out at 1.7 nM.
Consider `COc1ccc2c(c1)c(N1CCC(c3nc4cc(C)ccc4o3)CC1)c(C#N)c(=O)n2C` [Example 402, 6-methoxy-1-methyl-4-[4-(5-methyl-1,3-benzoxazol-2-yl)piperidin-1-yl]-2-oxo-1,2-dihydroquinoline-3-carbonitrile], for which the IC50 was determined as 16 nM.
In the case of `Cc1ccc2oc(C3(C)CCN(c4c(C#N)c(=O)n(C)c5ccc(S(C)(=O)=O)cc45)CC3)nc2c1` [Example 182, 6-(methanesulfonyl)-1-methyl-4-[4-methyl-4-(5-methyl-1,3-benzoxazol-2-yl)piperidin-1-yl]-2-oxo-1,2-dihydroquinoline-3-carbonitrile] it was 47 nM.
As for `Cn1c(=O)c(C(N)=O)c(N2CCC(c3nc4ccccc4o3)CC2)c2ccc(Cl)cc21` [Example 300, 4-[4-(1,3-benzoxazol-2-yl)piperidin-1-yl]-7-chloro-1-methyl-2-oxo-1,2-dihydroquinoline-3-carboxamide], the IC50 worked out at 1.2 nM.
The result for `COc1ccc2oc(C3CCN(c4c(C#N)c(=O)n(C)c5ccccc45)CC3)nc2c1` [Example 386, 4-[4-(5-methoxy-1,3-benzoxazol-2-yl)piperidin-1-yl]-1-methyl-2-oxo-1,2-dihydroquinoline-3-carbonitrile] reads 9.4 nM; that for `Cc1ccc2oc(C3(C)CCN(c4c(C#N)c(=O)n(C)c5ccc(C6CC(F)(F)C6)cc45)CC3)nc2c1` [Example 209, 6-(3,3-difluorocyclobutyl)-1-methyl-4-[4-methyl-4-(5-methyl-1,3-benzoxazol-2-yl)piperidin-1-yl]-2-oxo-1,2-dihydroquinoline-3-carbonitrile], 26 nM.
The result for `Cn1c(=O)c(C(N)=O)c(N2CCC(c3nc4cc(OCC5CCCO5)ccc4o3)CC2)c2ccccc21` (centres unmarked) [Example 487, 1-methyl-2-oxo-4-(4-{5-[(oxolan-2-yl)methoxy]-1,3-benzoxazol-2-yl}piperidin-1-yl)-1,2-dihydroquinoline-3-carboxamide] reads 13 nM.
With `Cn1c(=O)c(C#N)c(N2CCC(c3cnc4ccccc4n3)CC2)c2ccccc21` [Example 321, 1-methyl-2-oxo-4-[4-(quinoxalin-2-yl)piperidin-1-yl]-1,2-dihydroquinoline-3-carbonitrile], the IC50 is 75 nM.

The record behind these values is patent US11998539B2, “Substituted aminoquinolones as DGKalpha inhibitors for immune activation” (Bayer Aktiengesellschaft, priority 2019, dated 2024).
